Data published in ChEMBL document CHEMBL1201862, “PubChem BioAssay data set” (2004).
Calls of active or inactive are those of the source.

Experiments:
[1] = target: Beta-adrenergic receptor kinase 1 (Homo sapiens, UniProt P25098); test: aptamer displacement from bead-bound GRK2 – biochemical, cherry pick 1, bead flow cytometry, dose response (AID 504500)
[2] = target: T1, Heat shock factor protein 1 (Mus musculus, UniProt P38532); test: HSF1 potentiators in luciferase reporter cells, confirmation, cell-based, NIH3T3, luminescence, dose retest (AID 435004); format: functional;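 also: stress induced by proteasome inhibitor MG132 added 30 min after compound; luciferase reporter driven by HSF1 response element in NIH3T3 cells; actives raise luminescence as potentiators of the MG132 stress response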
T1 sequence (P38532 whole entry): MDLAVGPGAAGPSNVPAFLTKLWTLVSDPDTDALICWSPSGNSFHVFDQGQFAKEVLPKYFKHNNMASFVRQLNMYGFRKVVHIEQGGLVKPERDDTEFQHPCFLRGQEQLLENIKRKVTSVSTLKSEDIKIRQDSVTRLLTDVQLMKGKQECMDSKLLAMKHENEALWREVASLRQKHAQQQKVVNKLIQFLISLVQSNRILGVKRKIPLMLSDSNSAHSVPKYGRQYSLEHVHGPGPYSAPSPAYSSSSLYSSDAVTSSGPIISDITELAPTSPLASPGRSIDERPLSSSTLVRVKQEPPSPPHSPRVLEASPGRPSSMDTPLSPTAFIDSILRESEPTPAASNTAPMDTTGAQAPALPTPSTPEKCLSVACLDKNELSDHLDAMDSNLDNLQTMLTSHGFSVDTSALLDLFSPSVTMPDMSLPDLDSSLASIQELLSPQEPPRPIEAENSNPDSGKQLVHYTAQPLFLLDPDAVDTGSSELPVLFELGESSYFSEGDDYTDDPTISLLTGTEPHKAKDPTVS

[3] = target: Dual specificity protein phosphatase 3 (Homo sapiens, UniProt P51452); test: VHR phosphatase inhibition, dose response, selectivity assay for STEP inhibitor project, biochemical (AID 602374); format: functional; details: read-out: IC50_Mean
Dual specificity protein phosphatase 3, sequence (P51452 whole entry): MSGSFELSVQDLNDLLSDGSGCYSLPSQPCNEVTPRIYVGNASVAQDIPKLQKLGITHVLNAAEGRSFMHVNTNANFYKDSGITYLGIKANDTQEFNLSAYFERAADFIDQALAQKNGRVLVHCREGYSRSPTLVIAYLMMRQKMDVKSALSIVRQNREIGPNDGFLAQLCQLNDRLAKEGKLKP

[4] = target: Tyrosine-protein phosphatase non-receptor type 11 (Homo sapiens, UniProt Q06124); test: SHP2 phosphatase inhibition, dose response, selectivity assay for STEP inhibitor project, biochemical (AID 602367); format: functional; details: read-out: IC50_Mean
Tyrosine-protein phosphatase non-receptor type 11, sequence (Q06124 whole entry): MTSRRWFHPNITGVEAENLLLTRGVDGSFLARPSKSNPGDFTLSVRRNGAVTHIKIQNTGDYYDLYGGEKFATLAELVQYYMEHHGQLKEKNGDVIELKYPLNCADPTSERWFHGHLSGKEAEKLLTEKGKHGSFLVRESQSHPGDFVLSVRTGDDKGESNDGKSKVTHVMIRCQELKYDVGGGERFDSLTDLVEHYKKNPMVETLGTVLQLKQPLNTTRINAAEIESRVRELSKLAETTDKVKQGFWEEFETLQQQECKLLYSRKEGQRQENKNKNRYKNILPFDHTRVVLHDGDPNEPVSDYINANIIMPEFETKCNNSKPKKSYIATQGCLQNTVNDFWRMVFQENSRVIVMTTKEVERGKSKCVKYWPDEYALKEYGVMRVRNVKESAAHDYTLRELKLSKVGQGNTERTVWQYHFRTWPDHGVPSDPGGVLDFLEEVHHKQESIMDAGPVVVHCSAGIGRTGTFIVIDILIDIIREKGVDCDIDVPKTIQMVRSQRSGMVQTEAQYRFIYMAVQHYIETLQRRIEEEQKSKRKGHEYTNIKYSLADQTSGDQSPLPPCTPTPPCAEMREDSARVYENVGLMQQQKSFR

[5] = target: Tyrosine-protein phosphatase non-receptor type 5 (Homo sapiens, UniProt P54829); test: STEP phosphatase inhibitors, confirmation, biochemical, fluorescence intensity, uHTS hits (AID 602372); format: functional; details: read-out: IC50_Mean
Tyrosine-protein phosphatase non-receptor type 5, sequence (P54829 whole entry): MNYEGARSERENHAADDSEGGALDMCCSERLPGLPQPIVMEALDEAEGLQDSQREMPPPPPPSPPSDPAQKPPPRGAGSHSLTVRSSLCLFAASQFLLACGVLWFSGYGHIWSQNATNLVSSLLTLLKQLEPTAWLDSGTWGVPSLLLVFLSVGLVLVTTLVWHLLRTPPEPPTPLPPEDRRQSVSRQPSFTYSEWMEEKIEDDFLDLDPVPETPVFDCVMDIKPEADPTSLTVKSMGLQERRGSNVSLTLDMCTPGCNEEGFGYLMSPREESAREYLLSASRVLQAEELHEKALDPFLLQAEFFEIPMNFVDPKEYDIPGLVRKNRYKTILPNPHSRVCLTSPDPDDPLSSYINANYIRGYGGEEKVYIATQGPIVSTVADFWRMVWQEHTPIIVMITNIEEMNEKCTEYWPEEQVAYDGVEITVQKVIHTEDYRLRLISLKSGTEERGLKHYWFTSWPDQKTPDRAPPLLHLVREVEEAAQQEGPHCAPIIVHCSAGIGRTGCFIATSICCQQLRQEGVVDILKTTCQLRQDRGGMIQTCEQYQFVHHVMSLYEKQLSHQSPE

[6] = Shn3 3'UTR reporter inhibitors, dose response, cell-based, Clone20 osteoblasts, firefly luciferase, cherry-picked (AID 624132); format: functional;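 also: firefly luciferase luminescence from reporter carrying the Shn3 3'UTR in osteoblasts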
[7] = Counterscreen for AddAB inhibitors: absorbance-based bacterial cell-based high throughput dose response assay for inhibitors of bacterial viability. [Related pubchem assays (depositor defined):AID435030, AID449728, AID449731, AID488942, AID488955, AID488956]; format: functional
[8] = cells; format: functional, cell-based
[9] = system: BJ; test: cells; format: functional, cell-based; details: Homo sapiens
[10] = target: ATP-dependent molecular chaperone HSP82 (Candida albicans (strain WO-1) (Yeast), UniProt C4YTQ8); test: loss of DOC-induced GRE-beta-galactosidase reporter signal, dose response, Hsp90 inhibitor project, S. cerevisiae, luminescence (AID 2400); format: functional, cell-based;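 also: beta-galactosidase luminescence from glucocorticoid response element reporter as proxy for Hsp90 function; inhibitor potency where signal loss means Hsp90 inhibition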
ATP-dependent molecular chaperone HSP82, sequence (C4YTQ8 whole entry): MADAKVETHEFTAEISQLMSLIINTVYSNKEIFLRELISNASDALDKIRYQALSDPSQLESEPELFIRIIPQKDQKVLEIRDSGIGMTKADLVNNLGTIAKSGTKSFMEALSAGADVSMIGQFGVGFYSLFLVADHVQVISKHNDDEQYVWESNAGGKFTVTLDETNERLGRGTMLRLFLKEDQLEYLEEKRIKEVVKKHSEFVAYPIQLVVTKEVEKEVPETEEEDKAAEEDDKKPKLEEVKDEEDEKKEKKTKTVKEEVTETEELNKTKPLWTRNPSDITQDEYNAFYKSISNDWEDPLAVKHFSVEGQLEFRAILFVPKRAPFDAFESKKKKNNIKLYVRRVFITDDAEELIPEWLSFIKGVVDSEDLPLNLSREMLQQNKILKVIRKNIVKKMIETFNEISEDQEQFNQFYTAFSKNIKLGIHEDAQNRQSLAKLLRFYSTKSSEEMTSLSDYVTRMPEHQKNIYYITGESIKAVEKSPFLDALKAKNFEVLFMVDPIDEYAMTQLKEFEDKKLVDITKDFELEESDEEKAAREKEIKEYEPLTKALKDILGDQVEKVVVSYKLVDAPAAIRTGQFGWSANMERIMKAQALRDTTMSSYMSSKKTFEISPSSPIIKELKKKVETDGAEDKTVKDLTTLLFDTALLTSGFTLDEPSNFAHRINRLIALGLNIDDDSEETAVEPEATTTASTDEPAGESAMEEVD

[11] = cells; format: functional, cell-based; remark: listed apart in the source
[12] = cytotoxicity toward DRD oncogenic fibroblasts, dose response, cell-based, non-viral oncogenic, luminescence (AID 1934); format: functional; details: Homo sapiens
[13] = target: T2, Latent membrane protein 1 (Human herpesvirus 4 (strain B95-8), UniProt P03230); test: TES1-eGFP NF-kB reporter inhibition versus Tet-On dsRED, dose response, selectivity assay for LMP1 NF-kB inhibitor project, imaging, HEK293T, dual-color eGFP/dsRED, cherry-picks (AID 588398); format: functional, cell-based
T2 sequence (P03230 whole entry): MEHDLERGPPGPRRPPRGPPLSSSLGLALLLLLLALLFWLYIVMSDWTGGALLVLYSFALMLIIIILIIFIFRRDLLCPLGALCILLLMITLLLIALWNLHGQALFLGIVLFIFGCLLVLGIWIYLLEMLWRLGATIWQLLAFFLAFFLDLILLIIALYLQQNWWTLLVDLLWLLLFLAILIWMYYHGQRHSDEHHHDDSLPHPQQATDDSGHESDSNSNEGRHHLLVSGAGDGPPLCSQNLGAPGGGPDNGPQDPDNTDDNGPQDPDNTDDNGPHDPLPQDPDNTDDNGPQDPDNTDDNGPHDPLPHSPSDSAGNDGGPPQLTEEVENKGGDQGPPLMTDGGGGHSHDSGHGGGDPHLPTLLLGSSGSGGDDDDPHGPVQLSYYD

[14] = system: INS1; test: beta cell apoptosis inhibitors, cytokine rescue, dose response, luminescence, retest (AID 449756); format: functional, cell-based; details: Rattus norvegicus;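 also: cell death triggered by IL-1 beta plus TNF-alpha plus IFN-gamma mixture; protective hits raise ATP signal compared with cytokine alone wells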
[15] = control 3'UTR Renilla luciferase suppression, dose response, counter-screen for Shn3 inhibitor project, cell-based, Clone20-Shn3RL, cherry-picked (AID 624133); format: functional
[16] = target: Serine/threonine-protein phosphatase (Candida dubliniensis (strain CD36 / CBS 7987 / NCPF 3949 / NRRLY-17841) (Yeast), UniProt B9W6M3); test: calcineurin pathway inhibitors in yeast reporter, dose response, S. cerevisiae, CDRE-lacZ, luminescence, secondary (AID 2388); format: functional, cell-based;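 also: yeast reporter cells carrying a calcineurin-responsive lacZ construct stimulated with calcium chloride; luminescent beta-galactosidase reporter signal in whole cells rather than isolated phosphatase activity; potency for inhibition where a drop in reporter signal means calcineurin blockade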
Serine/threonine-protein phosphatase, sequence (B9W6M3 whole entry): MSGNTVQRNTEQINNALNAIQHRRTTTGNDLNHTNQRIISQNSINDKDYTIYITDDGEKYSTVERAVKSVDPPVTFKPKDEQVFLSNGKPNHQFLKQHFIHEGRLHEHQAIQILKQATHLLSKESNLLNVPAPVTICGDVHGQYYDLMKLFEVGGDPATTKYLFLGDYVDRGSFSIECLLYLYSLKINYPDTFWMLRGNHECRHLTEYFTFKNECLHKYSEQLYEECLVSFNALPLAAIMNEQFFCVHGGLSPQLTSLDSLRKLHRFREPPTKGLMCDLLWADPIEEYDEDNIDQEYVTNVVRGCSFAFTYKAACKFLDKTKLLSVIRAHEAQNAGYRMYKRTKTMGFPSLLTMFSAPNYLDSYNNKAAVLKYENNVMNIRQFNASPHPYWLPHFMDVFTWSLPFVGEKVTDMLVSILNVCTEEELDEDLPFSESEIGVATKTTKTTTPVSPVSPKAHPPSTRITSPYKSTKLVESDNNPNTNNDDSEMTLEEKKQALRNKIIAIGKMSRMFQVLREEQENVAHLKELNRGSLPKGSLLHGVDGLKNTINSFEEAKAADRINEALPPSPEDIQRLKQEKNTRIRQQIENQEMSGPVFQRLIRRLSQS

[17] = HepG2 cell cytotoxicity, dose response, cytotoxicity control for Shn3 inhibitor project, CellTiter-Glo, cherry-picked (AID 624134); format: functional, cell-based
[18] = system: BJ; test: cytotoxicity toward BJ-TERT-LT-ST fibroblasts, dose response, cell-based, RAS-independent, luminescence (AID 1935); format: functional; details: Homo sapiens;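 also: BJ fibroblasts immortalized with TERT plus LT and ST oncogenes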
[19] = system: HEK293; test: inhibitors of LMP1-driven NF-kB reporter, dose response, cell-based, HEK293, luciferase, cherry-pick (AID 588343); format: functional, Homo sapiens; details: Homo sapiens, HEK293
[20] = system: BJ; test: cytotoxicity toward BJ-TERT fibroblasts, dose response, cell-based, RAS-independent, luminescence (AID 1933); format: functional; details: Homo sapiens
[21] = NIH-3T3 fibroblast cytotoxicity, dose response, cytotoxicity control, cell-based, fluorescence, Alamar Blue, secondary assay (AID 2327); format: functional;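 also: NIH-3T3 mouse fibroblasts cultured with fluconazole at 8 µg/mL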
[22] = C. albicans growth with fluconazole, confirmation, fluorescence, retest (AID 2467); format: functional, cell-based
[23] = target: Exodeoxyribonuclease V (Escherichia coli (strain K12), UniProt P04993+P07648+P08394); test: E. coli RecBCD inhibitors, dose response, counter-screen for AddAB inhibitor project, absorbance, V66 E. coli, mutant T4 phage (AID 492957); format: functional, cell-based, Escherichia coli str. K-12 substr. MG1655
[24] = target: T3, RNA-binding protein pos-1 (Caenorhabditis elegans, UniProt G5EF15); test: inhibitors of POS-1/mex-3 RNA binding, dose response, biochemical, fluorescence polarization (AID 1964);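 also: purified POS-1 fused to maltose binding protein made in E. coli; potency of compounds blocking POS-1 binding to fluorescent RNA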
T3 sequence (G5EF15 whole entry): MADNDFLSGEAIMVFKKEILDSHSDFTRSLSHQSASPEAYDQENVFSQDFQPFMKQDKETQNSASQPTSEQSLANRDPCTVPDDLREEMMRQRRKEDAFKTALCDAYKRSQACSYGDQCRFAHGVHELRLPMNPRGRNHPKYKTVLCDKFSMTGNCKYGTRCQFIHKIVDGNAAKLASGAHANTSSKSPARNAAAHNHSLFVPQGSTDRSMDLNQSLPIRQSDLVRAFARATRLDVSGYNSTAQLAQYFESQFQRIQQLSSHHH

[25] = target: T4, Endoribonuclease toxin MazF (Escherichia coli K-12, UniProt P0AE70); test: MazF toxin RNase activators, dose response, biochemical, fluorescence, single-stranded RNA substrate, uHTS hits (AID 588481); format: functional
T4 sequence (P0AE70 whole entry): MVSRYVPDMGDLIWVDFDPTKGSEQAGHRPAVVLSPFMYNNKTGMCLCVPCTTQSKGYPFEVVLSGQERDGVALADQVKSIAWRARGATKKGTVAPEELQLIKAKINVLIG

[26] = target: T5, Zinc finger protein mex-5 (Caenorhabditis elegans, UniProt Q9XUB2); test: MEX-5/TCR-2 RNA interaction inhibitors, dose response, biochemical, C. elegans, fluorescence polarization (AID 1960)
T5 sequence (Q9XUB2 whole entry): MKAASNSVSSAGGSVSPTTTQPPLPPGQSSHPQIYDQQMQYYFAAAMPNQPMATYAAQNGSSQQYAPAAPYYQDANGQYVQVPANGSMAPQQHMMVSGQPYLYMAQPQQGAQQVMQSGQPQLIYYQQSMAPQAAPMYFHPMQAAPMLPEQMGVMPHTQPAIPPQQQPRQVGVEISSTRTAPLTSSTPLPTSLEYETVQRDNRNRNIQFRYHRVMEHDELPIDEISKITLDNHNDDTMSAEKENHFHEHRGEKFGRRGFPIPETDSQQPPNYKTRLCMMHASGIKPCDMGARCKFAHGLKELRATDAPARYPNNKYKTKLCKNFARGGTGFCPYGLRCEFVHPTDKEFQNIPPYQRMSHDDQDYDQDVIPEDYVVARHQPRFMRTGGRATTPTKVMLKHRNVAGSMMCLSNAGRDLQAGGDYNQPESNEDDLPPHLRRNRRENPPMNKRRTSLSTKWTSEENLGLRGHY

[27] = target: T4, Endoribonuclease toxin MazF; test: fluorescent RNA oligo signal without MazF, dose response, counter-screen for MazEF activator project, biochemical, fluorescence, single-stranded RNase substrate (AID 588502); format: functional
[28] = system: Candida albicans; test: growth inhibition of resistant C. albicans, dose response, CaCi-8 strain, fluconazole, dry powder, set 4 (AID 488950); format: functional, organism-based
[29] = system: Candida albicans; test: fluconazole resistance reversal in C. albicans, dose response, CaCi-2 strain, Alamar Blue, dry powder, set 4 (AID 488943); format: functional, organism-based
[30] = system: Candida albicans; test: growth inhibition of azole-resistant C. albicans, dose response, CaCi-8 strain, Alamar Blue, dry powder, set 2 (AID 488909); format: functional, organism-based
[31] = target: Hexokinase-1 (Homo sapiens, UniProt P19367); test: SAR analysis of small molecule inhibitors of hexokinase domain containing I (HKDC1) in the hexokinase 1 selectivity assay. [Related pubchem assays (depositor defined):AID493160, AID493190]; format: functional
Hexokinase-1, sequence (P19367 whole entry, the tested form may be a part): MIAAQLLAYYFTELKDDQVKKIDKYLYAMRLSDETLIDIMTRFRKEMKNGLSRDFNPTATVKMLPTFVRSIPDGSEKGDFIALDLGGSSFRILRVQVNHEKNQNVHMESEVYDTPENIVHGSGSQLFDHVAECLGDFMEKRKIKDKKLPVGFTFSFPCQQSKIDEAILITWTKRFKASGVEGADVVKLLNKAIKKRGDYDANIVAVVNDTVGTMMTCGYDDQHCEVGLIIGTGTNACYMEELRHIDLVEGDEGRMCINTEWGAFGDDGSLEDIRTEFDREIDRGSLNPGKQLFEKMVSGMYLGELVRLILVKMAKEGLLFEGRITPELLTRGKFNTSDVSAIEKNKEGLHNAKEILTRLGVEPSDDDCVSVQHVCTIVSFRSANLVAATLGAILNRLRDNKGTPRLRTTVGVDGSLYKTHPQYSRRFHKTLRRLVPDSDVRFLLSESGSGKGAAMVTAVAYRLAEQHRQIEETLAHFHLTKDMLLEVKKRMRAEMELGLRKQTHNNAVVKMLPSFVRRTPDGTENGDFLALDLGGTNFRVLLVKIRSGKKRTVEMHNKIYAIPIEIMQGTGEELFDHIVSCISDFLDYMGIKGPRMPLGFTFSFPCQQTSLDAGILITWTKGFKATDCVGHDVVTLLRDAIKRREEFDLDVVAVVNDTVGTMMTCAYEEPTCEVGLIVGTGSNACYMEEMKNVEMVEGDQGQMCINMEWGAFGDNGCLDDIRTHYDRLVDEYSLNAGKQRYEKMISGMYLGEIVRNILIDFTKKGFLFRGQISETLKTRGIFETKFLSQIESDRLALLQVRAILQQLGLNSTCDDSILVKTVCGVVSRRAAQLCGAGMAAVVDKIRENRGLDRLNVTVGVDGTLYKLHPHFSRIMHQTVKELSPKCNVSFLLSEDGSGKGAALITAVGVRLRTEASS

[32] = target: T6, Hexokinase HKDC1 (Homo sapiens, UniProt Q2TB90); test: SAR analysis of small molecule inhibitors of hexokinase domain containing I (HKDC1). [Related pubchem assays (depositor defined):AID493160, AID493190]; format: functional
T6 sequence (Q2TB90 whole entry): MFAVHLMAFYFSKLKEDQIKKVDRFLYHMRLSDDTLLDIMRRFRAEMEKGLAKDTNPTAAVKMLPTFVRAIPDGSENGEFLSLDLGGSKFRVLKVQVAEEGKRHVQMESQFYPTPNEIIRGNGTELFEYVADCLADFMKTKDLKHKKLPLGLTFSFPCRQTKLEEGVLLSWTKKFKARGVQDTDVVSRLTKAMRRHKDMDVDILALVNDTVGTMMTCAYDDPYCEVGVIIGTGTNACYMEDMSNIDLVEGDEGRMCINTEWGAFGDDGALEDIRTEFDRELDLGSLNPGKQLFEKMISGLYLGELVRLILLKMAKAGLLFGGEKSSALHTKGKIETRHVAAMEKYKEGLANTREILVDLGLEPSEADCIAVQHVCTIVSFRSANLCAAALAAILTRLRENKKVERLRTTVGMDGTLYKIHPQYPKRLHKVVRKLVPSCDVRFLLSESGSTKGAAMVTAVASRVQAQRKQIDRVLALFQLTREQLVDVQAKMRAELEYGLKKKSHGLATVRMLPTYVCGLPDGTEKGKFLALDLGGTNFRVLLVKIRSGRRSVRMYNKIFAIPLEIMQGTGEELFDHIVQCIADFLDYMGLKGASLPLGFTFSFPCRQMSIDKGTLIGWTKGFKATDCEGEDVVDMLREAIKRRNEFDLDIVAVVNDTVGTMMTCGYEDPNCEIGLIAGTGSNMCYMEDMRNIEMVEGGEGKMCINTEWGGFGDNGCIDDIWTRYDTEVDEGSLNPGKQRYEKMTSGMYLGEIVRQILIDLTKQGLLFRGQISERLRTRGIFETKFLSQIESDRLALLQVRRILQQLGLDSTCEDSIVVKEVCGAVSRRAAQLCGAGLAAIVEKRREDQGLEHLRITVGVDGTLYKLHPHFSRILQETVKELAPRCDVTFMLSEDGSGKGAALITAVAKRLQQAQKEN

Beta-adrenergic receptor kinase 1, sequence (P25098 whole entry): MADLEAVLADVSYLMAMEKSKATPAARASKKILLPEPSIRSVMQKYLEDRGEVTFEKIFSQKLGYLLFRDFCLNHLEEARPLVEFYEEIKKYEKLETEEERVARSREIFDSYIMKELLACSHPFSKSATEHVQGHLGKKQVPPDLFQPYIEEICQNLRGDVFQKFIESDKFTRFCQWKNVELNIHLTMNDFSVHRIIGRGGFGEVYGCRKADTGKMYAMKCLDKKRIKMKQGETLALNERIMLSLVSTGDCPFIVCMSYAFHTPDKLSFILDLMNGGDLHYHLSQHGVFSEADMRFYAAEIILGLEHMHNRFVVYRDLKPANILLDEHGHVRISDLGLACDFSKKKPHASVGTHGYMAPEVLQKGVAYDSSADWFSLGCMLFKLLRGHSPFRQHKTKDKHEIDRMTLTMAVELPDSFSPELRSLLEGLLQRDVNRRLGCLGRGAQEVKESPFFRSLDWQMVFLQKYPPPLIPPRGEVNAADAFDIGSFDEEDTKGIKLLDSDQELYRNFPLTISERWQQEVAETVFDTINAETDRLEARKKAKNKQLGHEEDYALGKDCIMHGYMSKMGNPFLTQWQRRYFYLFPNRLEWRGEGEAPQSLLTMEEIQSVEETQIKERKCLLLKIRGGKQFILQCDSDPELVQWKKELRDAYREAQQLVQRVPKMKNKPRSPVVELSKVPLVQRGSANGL

CCOC(=O)CC(NS(=O)(=O)c1ccc2ncc(C(=O)O)c(O)c2c1)c1ccc(OCC)c(OC)c1 (configuration not stated)
EC50 [1]: 3.62 µM (active)
EC50 [2]: > 260 µM (inactive)
IC50 [3]: 3 µM (active)
IC50 [4]: 1.53 µM (active)
IC50 [5]: 46.3 µM (inactive)

Oc1cccc(C(Nc2nccs2)c2ccc3cccnc3c2O)c1 (configuration not stated)
AC50 [6]: 1.67 µM (active)
IC50 [7]: 107 µM (inactive)
EC50 [8]: > 350 µM (not active)
EC50 [9]: 8.06 µM (active)
EC50 [10]: > 160 µM (inactive)
EC50 [11]: 13.2 µM (active)
EC50 [12]: 6.12 µM (active)
AC50 [13]: 8.97 µM (active)
AC50 [14]: 0.95 µM (active)
AC50 [15]: 1.87 µM (active)
EC50 [16]: > 180 µM (inactive)
AC50 [17]: 5.04 µM (active)
EC50 [18]: 6.31 µM (active)
AC50 [19]: 14 µM (active)
EC50 [20]: 9.83 µM (active)
EC50 [21]: 20.1 µM (inconclusive)
EC50 [22]: 0.796 µM (active)
IC50 [23]: > 119 µM (inactive)

CC(=O)N1CCN(c2ccc(N/C=C3\C(=O)NC(=O)N(Cc4ccccc4)C3=O)cc2)CC1
EC50 [24]: > 300 µM (not active)
EC50 [25]: > 99 µM (inactive)
EC50 [26]: 83.1 µM (active)
EC50 [27]: 19 µM (active)

O=C(c1ccccc1Cl)N1CCN(c2ccnc3cc(Cl)ccc23)CC1
AC50 [28]: 7.36 µM (active)
AC50 [29]: 4.8 µM (active)
AC50 [30]: 25.2 µM (active)

O=C(CSc1ncccn1)Nc1cccc(S(=O)(=O)N2CCOCC2)c1
IC50 [31]: > 80 µM (inactive)
IC50 [32]: > 80 µM (inactive)
